The results in this text go back to patent US5922335A, “Uses for ascorbyl-phosphoryl-cholesterol in topical compositions” (Avon Products, Inc., priority 1998, dated 1999).

Molecules are shown by their SMILES.

In data set [1] the test system is cultured human keratinocytes. Briefly: Triglyceride biosynthesis in cultured normal human keratinocytes (3H-acetate incorporation). Type of data set: cell-based. The following applies: 10 mM; 18.5 hours, then 3 hours with 3H-acetate; FIG. 1. The method, then:
Normal human keratinocytes (hereinafter "NHK") were cultured and then divided into three groups. Each of the three groups were grown in various media for 18.5 hours, the various media being as follows:
1 mM "cold" sodium acetate
10 mM Cholesterylmonophosphate (CMP)
10 mM 3'-(L-ascorbyl-2-o-phosphoryl)-cholesterol
At the conclusion of 18.5 hours, 3H-acetate sodium salt (product number NEN#003H, 6.08 ci/mMole) was added to each group at 3 uCi/ml. The three groups were incubated at 37° C. for an additional 3 hours.
At the conclusion of the incubation period, each group was washed three times with iced PBS. The cells were then collected, sonicated and aliquated for lipid extraction using Bligh/Dyer method and for protein quantification.
The lipid extracts were subfracationated by Thin Layer Chromatography. Proteins were quantitated by Bradford assay.
Triglyceride biosythesis in cultured human keratinocytes is measured as a function of incorporation of 3-H acetate. The incorporation of 3-H acetate is expressed as counts per minute per milligram of 3-H acetate (cpm/mg 3H acetate). The results are illustrated in FIG. 1.

A short description of data set [2]: Hydroxyl radical scavenging activity by Electron Spin Resonance (DMPO, H2O2/FeSO4). It is filed as biochemical. The following applies: for Relative Peak Height (RPH): control 100.0; for Peak Height: pH 7.4. The method, then:
Hydroxy radical scavenging activity was measured according to an art accepted method. (See Liu et al. Antioxidant Action of Guilingji in the Brain of Rats with FeCl3-induced Epilepsy, Free Radical Biol. & Med., (9:451-545, 1990.) Sample solutions of 3'-(L-ascorbyl-2-o-phosphoryl)-cholesterol of varying concentrations were prepared by dissolving 3'-(L-ascorbyl-2-o-phosphoryl)-cholesterol in 0.1M potassium phosphate buffer (pH=7.4). The following solutions were also prepared: 0.18M 5,5-dimethyl-1-pyrooline-N-oxide (hereinafter "DMPO") in 0.1M potassium phosphate buffer; 2 mM hydrogen peroxide (hereinafter "H2 O2 ") in 0.1M potassium phosphate buffer; and 0. 2 mM iron(II) sulfate (hereinafter "FeSO4 ") in distilled water. Fifty (50) […] of each of the aforedescribed solutions and […] of a sample solution were mixed for thirty (30) seconds and then placed in a flat cell. The Electron Spin Resonance was then measured using Free Radical Monitor JES-FR30, manufactured by JEOL, Tokyo, Japan, (hereinafter "FRM"). The FRM normalized all spectra for calculation by using an internal standard of manganese dioxide (hereinafter "MnO2 "). All peak heights were compared to the constant MnO2 signal generated. Each sample peak height was then divided by the MnO2 peak height to provide a relative peak height (hereinafter "RPH").

A further data set has as its system Human elastin promoter. Briefly: Inhibition of elastin gene promoter activity in UVB-irradiated cultured dermal fibroblasts transfected with promoter-reporter molecules. It is filed as cell-based. The note with it: for % Inhibition of elastin promoter activity at 6 hours / % Inhibition of elastin promoter activity at 12 hours: 100 μ Solution. How it is done: An art recognized method for evaluating the molecular events associated with increased elastin production was performed by measuring the activity of the elastin gene promoter, which is responsible for the activation of elastin gene transcription. (Bernstein, E. et al. 1995 Jour. Invest. Dermatol. 105:269-273).
Human elastin promoter molecules were linked to reporter molecules. The promoter-reporter linked molecules were then transfected into cultured dermal fibroblasts. Previous studies indicate that exposure of cultured fibroblasts to UVB radiation results in upregulation of elastin promoter activity. However, it is believed that UVA radiation may have an indirect effect on solar-induced elastosis.
Solutions of 1 μM to 100 μM of each 3'-(L-ascorbyl-2-o-phosphoryl)-cholesterol and ascorbic acid were produced. These solutions were then supplied to cultured fibroblasts. The control consisted of cultured fibroblasts in media containing neither 3'-(L-ascorbyl-2-o-phosphoryl)-cholesterol nor ascorbic acid.
The cultured fibroblasts were irradiated with single, dose of UVB radiation (5.5 mJ/cm^2) using an FS-40 light source. The spectrum of effectiveness of the FS-40 light source is estimated at 80 to 90% attributable to UVB. It is believed that 10 to 20% of the effectiveness of the FS-40 light source is attributable to […]. The activity attributable to UVA is believed to be negligible.

In the next data set the test system is human skin fibroblasts. Briefly: Collagen biosynthesis by cultured human skin fibroblasts ([3H]-Proline Incorporation Assay). Type of data set: cell-based. The following applies: 48 hours; for collagen biosynthesis, Dpm × 10^-3 / mg protein: control 1.55; for collagen biosynthesis, Dpm × 10^-5 / mg DNA: control 14.43. The method, then:
An art-recognized [^3 H]-Proline Incorporation Assay was performed with differne does of 3'-(L-ascorbyl-2-o-phosphoryl)-cholesterol. Juva, Anal. Biocheml, Vol, 15, PAGES 77-83 (1966); Booth, Biochem. Biophys. Acta, Vol. 675, pages 117-122 (1981).
After the first 24 hours [^3 H]-labeled proline was added to the culture. Following the second 24 hour period, the cells are harvested and prepared for the collagen biosynthesis assay.
Protease inhibitors are added to prevent degradation of collagen and other proteins. The cell layer is scraped into a solution containing 0.4 M NaCl and 0.01 M Tris (pH 7.5). Extracts are sonicated to disrup cell membranes. Saparate volumes of the cell-containing solution (1 ml each) are dialyzed overnight against several changes of deionized water. The retentate is removed from dialysis and hydrolyzed in 6 N hydrochloric acid at 120 degrees C. overnight. The assay is performed using an oxidation process with 2 M chloramine-T. Samples are analyzed for radioactive counts, with represent the amount of newly synthesized [^3 H]-labeled proline - - - an index for new collagen synthesis.

A short description of data set [3]: Superoxide anion scavenging by Electron Spin Resonance (hypoxanthine-xanthine oxidase system). The following applies: about 2.5 mg/ml; pH 7.4. Type of data set: biochemical. The method, then:
Superoxide anion scavenging ability was estimated according to the method described in the Liu et al. article noted above. Superoxide anion was generated by a hypoxanthine (hereinafter "HPX")-xanthine oxidase (hereinafter "XOD") system. The following solutions were prepared: 50 μl of 4 mM HPX in 0.1M potassium phosphate buffer; 30 μl of dimethyl sulfoxide, 50 μL of sample; 20 μL OF […] DMPO in 0.1M potassium phosphate buffer; and, 50 μl of XOD (0.4 units/ml) in 0.1M potassium phosphate buffer. The pH of the 0.1M potassium phosphate buffer was 7.4. The solutions of HPX, DMSO, DMPO, XOD and sample were mixed and transferred into a 200 μl-capacity flat cell. Electron Spin Resonance spectra was analyzed.

In the case of `CC(C)CCC[C@@H](C)[C@H]1CC[C@H]2[C@@H]3CC=C4C[C@@H](OP(=O)(O)OC5=C(O)[C@@H]([C@@H](O)CO)OC5=O)CC[C@]4(C)[C@H]3CC[C@]12C` [3'-(L-ascorbyl-2-o-phosphoryl)-cholesterol], the “triglyceride synthesis in cultured human keratinocytes (in words)” value in data set [1] is recorded as “significantly increases triglyceride synthesis in cultured human keratinocytes”. The “hydroxyl radical scavenging (in words)” value in data set [2] is “effective scavenger of hydroxyl radicals”. In addition, the “Relative Peak Height (RPH)” value in data set [2] (0.0391 mg/ml) came to 100.0; in data set [2] (0.0782 mg/ml), 85.0; in data set [2] (0.1563 mg/ml), 78.1; in data set [2] (0.3125 mg/ml) it was 57.5; in data set [2] (0.6250 mg/ml) it was 30.6; in data set [2] (1.2500 mg/ml) it was 9.4. Also, the “Relative Peak Height (RPH)” value in data set [2] (2.5000 mg/ml) stood at 5.6. Further, the “Peak Height” value in data set [2] (0.0391 mg/ml) was found to be 1.60; in data set [2] (0.0782 mg/ml), 1.36; in data set [2] (0.1563 mg/ml) it was 1.25; in data set [2] (0.3125 mg/ml), 0.92; in data set [2] (0.6250 mg/ml) it was 0.49; in data set [2] (1.2500 mg/ml) it was 0.15. Moreover, in data set [2] (2.5000 mg/ml), the “Peak Height” value turned out to be 0.09. Besides, the “effect on elastin promoter activity in cultured fibroblasts (in words)” value in the data set on Human elastin promoter (1 μM to 100 μM, UVB 5.5 mJ/cm^2) is on record as “decreased elastin promoter activity in cultured fibroblasts in a dose dependent manner”. In addition, the “degree of elastin promoter inhibition compared with ascorbic acid (in words)” value in the data set with Human elastin promoter (1 μM to 100 μM, compared to ascorbic acid) is “exhibits a far superior degree of elastin promoter inhibition”. The “% Inhibition of elastin promoter activity at 6 hours” value in the data set on Human elastin promoter (UVB 5.5 mJ/cm^2) worked out at 43%. Further, in the data set with Human elastin promoter (UVB 5.5 mJ/cm^2), the “% Inhibition of elastin promoter activity at 12 hours” value is 34%. Further, the “duration of elastin promoter inhibition compared with ascorbic acid (in words)” value with Human elastin promoter (compared to ascorbic acid) is on record as “inhibits elastin promoter activity for a significantly longer period of time than ascorbic acid”. For the same compound, the “dose dependence of stimulation in human skin fibroblasts (in words)” value in the data set with human skin fibroblasts (11.3 to 45 μg/ml) was “increased production of new human skin fibroblasts in a dose dependent manner”. For the same compound, the “Stimulation - fold Increase of collagen biosynthesis” value in the data set on human skin fibroblasts (11.3 μl/ml) stood at 2.9 fold; with human skin fibroblasts (22.5 μl/ml) it was 3.3 fold; in the data set on human skin fibroblasts (45.0 μl/ml), 6.4 fold. For the same compound, the “collagen biosynthesis, Dpm × 10^-3 / mg protein” value with human skin fibroblasts (11.3 μl/ml) stood at 5.17 Dpm × 10^-3 / mg protein; with human skin fibroblasts (22.5 μl/ml) it was 5.02 Dpm × 10^-3 / mg protein; with human skin fibroblasts (45.0 μl/ml) it was 11.07 Dpm × 10^-3 / mg protein. Further, the “collagen biosynthesis, Dpm × 10^-5 / mg DNA” value was 42.07 Dpm × 10^-5 / mg DNA in the data set with human skin fibroblasts (11.3 μl/ml), 48.31 Dpm × 10^-5 / mg DNA in the data set on human skin fibroblasts (22.5 μl/ml) and 92.25 Dpm × 10^-5 / mg DNA with human skin fibroblasts (45.0 μl/ml). Also, the “inhibition of the formation of the superoxide” value in data set [3] is listed as 50%.

On to `O=C1O[C@H]([C@@H](O)CO)C(O)=C1O` [Ascorbic Acid, ascorbic acid, reference compound], for which, in the data set on Human elastin promoter (UVB 5.5 mJ/cm^2), the “% Inhibition of elastin promoter activity at 6 hours” value was determined as 23% and the “% Inhibition of elastin promoter activity at 12 hours” value worked out at 0%.
